The results in this text go back to US20220267720A1, “FIBROSIS-SPECIFIC CELL CULTURE SUBSTRATE AND METHODS OF USE” (Xylyx Bio, Inc., priority 2019, published 2022).

A short description of series [1]: Diffusivity of fluorescent trackers through liver ECM hydrogels. In kind it is physicochemical. The text has this: Physiochemical characterizations of fibrotic and normal human liver matrix hydrogels.
Series [2] concerns human hepatic stellate cells (HSC). The experiment in a line: IC50 response of hepatic stellate cells to Erlotinib, XTT assay. In kind it is cell-based. Particulars: HSC on fibrotic or normal soluble ECM or plastic, 72 hours with drug. How it is done: Methods: Primary human hepatocytes, HepG2 cells (human hepatocarcinoma cell type commonly used to model hepatocytes), and human hepatic stellate cells (HSC) were cultured for up to 7 days on normal or fibrotic human liver matrix scaffolds, Matrigel, collagen I hydrogels, and/or tissue culture plates (plastic) with or without collagen I coating.
HSCs differentially expressed fibrosis-related genes ACTA2, COL1A1 LOXL2 and PDGFR2 in liver scaffolds versus tissue plastic and Coll coated plates (FIG. 11B). […] Although morphologic similarities were observed between HSC cultured in fibrotic and normal liver ECM scaffolds, morphology differed from HSC cultured on artificial substrates (FIG. 11C). […] To test whether HSC cultured on different ECM respond differently to drug treatment then cells grown in standard 2D we measured the IC50 response of HSC to Erlotinib, an inhibitor of the epidermal growth factor receptor (EGFR) tyrosine, used for the treatment for several cancers and currently is in clinical trials for the treatment of hepatocarcinomatous originating from cirrhotic livers (FIG. 11F). 5000 cells were plated on 96 wells on fibrotic or normal ECM soluble ECM and on plastic. 24 hours later Erlotinib or DMSO vehicle in different concentrations was added. Cells were grown with drugs for 72 hours (with media+drug replenished every day). Cell number were assed using a standard XTT assay.
A general note: Formazan colour is commonly taken as a measure of viable cells.

Series [3] has as its system pulmonary fibroblasts. Briefly: Gene expression of fibroblasts in IPF matrix scaffolds treated with antifibrotic agent. In kind it is cell-based, human.
For series [4], the system named is pulmonary fibroblasts. The experiment in a line: Growth curves of pulmonary fibroblasts in IPF and normal lung matrix scaffolds exposed to antifibrotic agent. In kind it is cell-based, human.
The test system of series [5] is Normal HSC. The experiment in a line: Cell-based proliferation assay of HSC in fibrotic human liver ECM hydrogel. To be noted: TGFβ1 25 nM, Pirfenidone 2.7 mM, 3 days, readout day 5. The method, then:
(§1) Normal HSC were cultured in fibrotic human liver ECM hydrogel for up to 5 days. Cells were cultured in fibrotic liver ECM hydrogel for 2 days, then TGFβ1 (25 nM) was added to induce activation, along with 2.7 mM Pirfenidone (FDA-approved gold standard anti-fibrotic drug) or DMSO vehicle (1%) control for 3 days prior to assay readouts on day 5. Cell-based proliferation assay, immunofluorescence imaging in multi-well plates, and Elisa for ProCollagen1 were performed. […] Conclusions: We confirmed compatibility of normal & fibrotic liver ECM hydrogel with common analytical techniques & assays used in early-stage drug development including discovery, screening, target validation.

Series [6] concerns Normal human pulmonary fibroblasts. The experiment in a line: Proliferation and myofibroblast differentiation assay in fibrotic human lung ECM hydrogel. The class given is cell-based. The method, then:
Normal human pulmonary fibroblasts were cultured in fibrotic human lung ECM hydrogel for up to 5 days and subjected to live cell imaging with CellTracker™ red, immunofluorescence imaging in multi-well plates, and a common cell-based proliferation assay. Cells were cultured in fibrotic lung ECM hydrogel for 2 days, then TGFβ1 (5 nM) was added to induce myofibroblast differentiation, along with 2.7 mM Pirfenidone (FDA-approved gold standard anti-fibrotic drug) or DMSO vehicle ([…]) control for […] prior to assay readouts on day 5. […] After 48 hours, 1standard immunofluorescence staining was performed in situ in 96-well plates. Fibroblasts expressed vimentin, αSMA, and proliferation marker Ki67 (white arrows, FIG. 21B).

In series [7] the test system is Normal HSC. Briefly: Ki67 immunofluorescence imaging of HSC in fibrotic human liver ECM hydrogel. The class given is cell-based. To be noted: for Ki67 positive cells after Pirfenidone treatment: 2.7 mM Pirfenidone; for proliferating Ki67+ cells (change): fibrotic liver ECM hydrogel, TGFβ1 25 nM, Pirfenidone 2.7 mM, readout day 5. The method, then:
as §1

Setting [8] is: fibroblasts in IPF matrix scaffolds.
[9] abbreviates: fibrotic lung ECM scaffolds compared to tissue culture plastic.

In turn, `CC1=CC(C)(C)N(C)c2cc3[o+]c4cc5c(cc4c(-c4cc(NC(=O)c6ccc(CCl)cc6)ccc4C(=O)[O-])c3cc21)C(C)=CC(C)(C)N5C.CC1=CC(C)(C)N(C)c2cc3[o+]c4cc5c(cc4c(-c4ccc(NC(=O)c6ccc(CCl)cc6)cc4C(=O)[O-])c3cc21)C(C)=CC(C)(C)N5C` [CellTracker Red CMTPX] yielded a diffusion rate in series [1] greater than 2 mm h^−1.
For the molecule `C#Cc1cccc(Nc2ncnc3cc(OCCOC)c(OCCOC)cc23)c1` [Erlotinib], in series [2], the “IC50 response of HSC to Erlotinib” value was “lower for cells on normal ECM compared to fibrotic ECM and higher for plastic cultured cells”.
As for `Cc1ccc(-c2ccc3c(ccc4sc5c(c43)NC[C@@H](C)NC5=O)n2)cn1` [PF3644022], in the series on pulmonary fibroblasts [3] (setting [8]), the “expression of ACTA2” value is recorded as “consistently reduced”, the “expression of COL1A1” value is given as “consistently reduced” and the “expression of YAP1” value is recorded as “No significant differences”. In addition, the “expression of genes associated with ECM production” value with pulmonary fibroblasts [3] (setting [9]) was “downregulation”. The “growth of fibroblasts, sensitivity and drug response” value in the series with pulmonary fibroblasts [4] (fibroblasts in IPF matrix scaffolds versus normal lung matrix scaffolds) is “greater sensitivity and drug response”. The “growth of fibroblasts versus untreated cells” value in the series on pulmonary fibroblasts [4] (fibroblasts in normal lung matrix scaffolds, after 6 days) is “not significantly different from untreated cells”. For the same molecule, the “sensitivity and drug response” value with pulmonary fibroblasts [4] (setting [9]) was “greater sensitivity and drug response”.
On to `Cc1ccc(=O)n(-c2ccccc2)c1` [Pirfenidone], for which the cell proliferation entry in the series on Normal HSC [5] is recorded as “slowed cell proliferation”. For the same molecule, the “proliferation of lung fibroblasts” value in series [6] (2.7 mM Pirfenidone with TGFβ1 5 nM, readout day 5) is given as “decrease proliferation”. The “Ki67 positive cells after Pirfenidone treatment” value in the series on Normal HSC [7] (HSC on liver ECM) was roughly 20%; in the series on Normal HSC [7] (HSC on plastic) it was “over 50%”. Also, the “proliferating Ki67+ cells (change)” value with Normal HSC [7] is given as “significantly reduced”.
With “TGFβ: transforming growth factor beta, added to induce activation / myofibroblast differentiation”, the cell proliferation entry with Normal HSC [5] is reported as “accelerated cell proliferation”. Moreover, in series [6] (TGFβ1 5 nM), the αSMA result is listed as “increased”. For the same molecule, in the series with Normal HSC [7], the “proliferating Ki67+ cells (change)” value is reported as “significantly changed”.
